Source: PubChem BioAssay AID2060493 (Molecular Pharmacology Branch, DTP, NCI, 2025)

Test system: 616215-338-R-J1-PDC tumor spheroids, viability
Assay: Anticancer human tumor 616215-338-R-J1-PDC patient-derived colon adenocarcinoma cell line growth inhibition [GQUAD]
Details: spheroids with HUVEC and MSC; for IC50: curve of first compound; for viability, T/C: stronger effect = lower value; active = viability on the fitted dose curve at most 10% of control; inactive = the rest
How it was run: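 Multi-cell-type spheroids of tumor cells with HUVEC and mesenchymal stem cells, treated with drug combinations. Concentrations descend in half-log steps from near clinical Cmax, or from 10 microM where Cmax is unknown; viability read-out.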
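Note: spheroids exposed to agents for 7 days before readout.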
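Throughout, for viability, T/C: percent viability relative to DMSO vehicle control wells taken as 100%.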

CCc1c2c(nc3ccc(O)cc13)-c1cc3c(c(=O)n1C2)COC(=O)[C@]3(O)CC + Cc1[nH]c2ccc(F)cc2c1-c1nc2c3cccnc3c3ncccc3c2[nH]1
13.2 nM: IC50 (second compound 3.16 µM)
12 nM: IC50 (second compound 1 µM)
8.78 nM: IC50 (second compound 0.316 µM)
9.2 nM: IC50 (second compound 0.1 µM)
16.7 nM: IC50 (second compound 0.0316 µM)
7.87 nM: IC50 (second compound 10 µM)
inactive: viability, T/C (second compound 0.0316 µM, first compound 0.000999 µM) 97.3% | viability, T/C (second compound 0.0316 µM, first compound 0.00316 µM) 81.9% | viability, T/C (second compound 0.0316 µM, first compound 0.00999 µM) 53.6% | viability, T/C (second compound 0.0316 µM, first compound 0.0316 µM) 43% | viability, T/C (second compound 0.0316 µM, first compound 0.0999 µM) 23.4% | viability, T/C (second compound 0.0316 µM, first compound 0.316 µM) 12.8% | viability, T/C (second compound 0.1 µM, first compound 0.000999 µM) 94.5% | viability, T/C (second compound 0.1 µM, first compound 0.00316 µM) 100% | viability, T/C (second compound 0.1 µM, first compound 0.00999 µM) 46.3% | viability, T/C (second compound 0.1 µM, first compound 0.0316 µM) 33.1% | viability, T/C (second compound 0.1 µM, first compound 0.0999 µM) 24.9% | viability, T/C (second compound 0.1 µM, first compound 0.316 µM) 19.9% | viability, T/C (second compound 0.316 µM, first compound 0.000999 µM) 96.5% | viability, T/C (second compound 0.316 µM, first compound 0.00316 µM) 90.3% | viability, T/C (second compound 0.316 µM, first compound 0.00999 µM) 42.5% | viability, T/C (second compound 0.316 µM, first compound 0.0316 µM) 32.3% | viability, T/C (second compound 0.316 µM, first compound 0.0999 µM) 21.8% | viability, T/C (second compound 0.316 µM, first compound 0.316 µM) 13.8% | viability, T/C (second compound 1 µM, first compound 0.000999 µM) 108% | viability, T/C (second compound 1 µM, first compound 0.00316 µM) 76.8% | viability, T/C (second compound 1 µM, first compound 0.00999 µM) 58.9% | viability, T/C (second compound 1 µM, first compound 0.0316 µM) 28.5% | viability, T/C (second compound 1 µM, first compound 0.0999 µM) 21.7% | viability, T/C (second compound 1 µM, first compound 0.316 µM) 16.4% | viability, T/C (second compound 3.16 µM, first compound 0.000999 µM) 98.5% | viability, T/C (second compound 3.16 µM, first compound 0.00316 µM) 86.5% | viability, T/C (second compound 3.16 µM, first compound 0.00999 µM) 51.2% | viability, T/C (second compound 3.16 µM, first compound 0.0316 µM) 35.2% | viability, T/C (second compound 3.16 µM, first compound 0.0999 µM) 20.7% | viability, T/C (second compound 3.16 µM, first compound 0.316 µM) 14.5% | viability, T/C (second compound 10 µM, first compound 0.000999 µM) 90.3% | viability, T/C (second compound 10 µM, first compound 0.00316 µM) 74.9% | viability, T/C (second compound 10 µM, first compound 0.00999 µM) 42.5% | viability, T/C (second compound 10 µM, first compound 0.0316 µM) 24.5% | viability, T/C (second compound 10 µM, first compound 0.0999 µM) 20.5% | viability, T/C (second compound 10 µM, first compound 0.316 µM) 13.4%
